Test results taken from the NIST ThermoML archive (doi:10.1016/j.fluid.2015.09.036).
Numbers after ± are expanded uncertainties.

Test: wn = mass fraction of the nth substance listed
Details: 101.3 kPa, Liquid, Vibrating tube method

| mass density (283.15 K, w1 = 0.1926) | mass density (303.15 K, w1 = 0.4065) | mass density (313.15 K, w1 = 0.5552) | mass density (283.15 K, w1 = 0.06948) | mass density (303.15 K, w1 = 0.1384) | mass density (313.15 K, w1 = 0.1853) | SMILES |
| --- | --- | --- | --- | --- | --- | --- |
| 967.2 ± 0.8 kg/m3 | 999.4 ± 1.6 kg/m3 | 1005.4 ± 1.8 kg/m3 | – | – | – | O=C(O)CCCC(=O)O [1,5-pentanedioic acid] + CCO |
| – | – | – | 841 ± 0.3 kg/m3 | 855.2 ± 0.5 kg/m3 | 876.9 ± 0.7 kg/m3 | O=C(O)CCCCC(=O)O [1,6-hexanedioic acid] + CCO |
